“Also recorded” adds a separate entry of the source.
Legend:
[1] = target: T1, CYP1A2 (Homo sapiens, UniProt P05177); assay: Inhibition of recombinant CYP oxidation (fluorescent coumarin substrate); assay type: in vitro ADME; conditions: read-out: Recombinant CYP IC50 (µM) with 95% confidence intervals
T1 construct: purchased BD Biosciences Discovery Labware (Bedford, MA, USA)
Procedure: (§1) Incubations were carried out in a total volume of 100 µl of 100 mM Tris-HCl buffer (pH 7.4) in all black, flat-bottom Costar 96-well plates (Corning Incorporated, Corning, NY, USA). […] The samples were then preincubated at 37 °C for 10 min. The reactions were initiated by the addition of NADPH, and 0–10 µM 7-hydroxycoumarin was used as the standard. The fluorescent signal was measured with a Victor^2 1420 multilabel plate counter (PerkinElmer Lifesciences Wallac, Turku, Finland) with excitation and emission wavelengths of 405 and 460 nm, respectively. Fluorescence was monitored every 2 min for 40 min from where the concentration was calculated at the various time points. From these, oxidation rates (µM/min) and the relative remaining activity of the sample at different concentrations were calculated. The data were fit to sigmoidal dose-response curves with nonlinear regression, and IC50 values (the concentration at which the sample reduced the metabolism of the CYP substrate by 50%) were determined. […] This was analyzed using nonlinear equations in Graph Pad Prism, which produced IC50 values and its 95% confidence interval as the results.

[2] = target: T2, recombinant CYP 2C19 (Homo sapiens, UniProt P33261); assay: as above; assay type: in vitro ADME; conditions: CYP 2C19, substrate TFD032, 5 nM recombinant CYP, verbascoside 0.4-50 µM
T2 construct: purchased BD Biosciences Discovery Labware (Bedford, MA, USA)
Procedure: as §1

[3] = target: T3, CYP3A4 (Homo sapiens, UniProt P08684); assay: as above; assay type: in vitro ADME; conditions: read-out: Recombinant CYP IC50 (µM) with 95% confidence intervals
T3 construct: purchased BD Biosciences Discovery Labware (Bedford, MA, USA)
Procedure: as §1

[4] = target: T4, CYP2D6 (Homo sapiens, UniProt P10635); assay: as above; assay type: in vitro ADME; conditions: read-out: Recombinant CYP IC50 (µM) with 95% confidence intervals
T4 construct: purchased BD Biosciences Discovery Labware (Bedford, MA, USA)
Procedure: as §1

[5] = target: T5, recombinant CYP 2A6 (Homo sapiens, UniProt P11509); assay: as above; assay type: in vitro ADME; conditions: CYP 2A6, substrate coumarin, 5 nM recombinant CYP, verbascoside 0.4-50 µM
T5 construct: purchased BD Biosciences Discovery Labware (Bedford, MA, USA)
T5 sequence (P11509 1-494): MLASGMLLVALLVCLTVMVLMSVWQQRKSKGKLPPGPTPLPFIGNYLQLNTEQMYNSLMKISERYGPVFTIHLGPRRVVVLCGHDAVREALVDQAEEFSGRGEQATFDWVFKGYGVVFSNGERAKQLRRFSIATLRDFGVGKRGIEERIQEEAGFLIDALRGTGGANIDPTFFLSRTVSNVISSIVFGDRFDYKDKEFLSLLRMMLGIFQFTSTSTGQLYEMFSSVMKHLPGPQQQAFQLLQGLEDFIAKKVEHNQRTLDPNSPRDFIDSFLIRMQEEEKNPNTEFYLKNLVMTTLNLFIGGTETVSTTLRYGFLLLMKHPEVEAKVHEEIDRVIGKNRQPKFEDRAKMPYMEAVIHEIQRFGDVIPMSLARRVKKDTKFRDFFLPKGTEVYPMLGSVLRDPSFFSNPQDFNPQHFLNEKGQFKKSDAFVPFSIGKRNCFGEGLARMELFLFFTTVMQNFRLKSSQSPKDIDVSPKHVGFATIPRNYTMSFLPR
Procedure: as §1

[6] = target: T6, CYP1B1 (Homo sapiens, UniProt Q16678); assay: as above; assay type: in vitro ADME; conditions: read-out: Recombinant CYP IC50 (µM) with 95% confidence intervals
T6 construct: purchased BD Biosciences Discovery Labware (Bedford, MA, USA)
T6 sequence (Q16678 1-543): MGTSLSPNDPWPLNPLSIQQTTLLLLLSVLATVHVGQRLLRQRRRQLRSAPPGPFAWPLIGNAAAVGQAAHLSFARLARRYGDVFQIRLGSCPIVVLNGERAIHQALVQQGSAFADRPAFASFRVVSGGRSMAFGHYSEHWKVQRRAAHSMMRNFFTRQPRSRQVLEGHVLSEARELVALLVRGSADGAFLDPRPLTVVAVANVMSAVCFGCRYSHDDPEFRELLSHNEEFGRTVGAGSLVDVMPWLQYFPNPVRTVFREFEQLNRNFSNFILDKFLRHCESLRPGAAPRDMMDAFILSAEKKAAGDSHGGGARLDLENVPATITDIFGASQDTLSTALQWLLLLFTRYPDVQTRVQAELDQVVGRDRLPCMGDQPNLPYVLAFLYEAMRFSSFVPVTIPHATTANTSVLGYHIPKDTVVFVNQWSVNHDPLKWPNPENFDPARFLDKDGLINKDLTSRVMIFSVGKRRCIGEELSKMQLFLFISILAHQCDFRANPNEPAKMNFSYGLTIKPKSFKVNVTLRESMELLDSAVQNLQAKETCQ
Procedure: as §1

[7] = test system: PBMCs; set-up: method as in Sipahi et al. (2016) [21]; conditions: aqueous extract of verbascoside; ref Sipahi et al. (2016) [21]; read-out: PBMC cellular toxicity IC50; cited from earlier work

T2 sequence (P33261 whole entry): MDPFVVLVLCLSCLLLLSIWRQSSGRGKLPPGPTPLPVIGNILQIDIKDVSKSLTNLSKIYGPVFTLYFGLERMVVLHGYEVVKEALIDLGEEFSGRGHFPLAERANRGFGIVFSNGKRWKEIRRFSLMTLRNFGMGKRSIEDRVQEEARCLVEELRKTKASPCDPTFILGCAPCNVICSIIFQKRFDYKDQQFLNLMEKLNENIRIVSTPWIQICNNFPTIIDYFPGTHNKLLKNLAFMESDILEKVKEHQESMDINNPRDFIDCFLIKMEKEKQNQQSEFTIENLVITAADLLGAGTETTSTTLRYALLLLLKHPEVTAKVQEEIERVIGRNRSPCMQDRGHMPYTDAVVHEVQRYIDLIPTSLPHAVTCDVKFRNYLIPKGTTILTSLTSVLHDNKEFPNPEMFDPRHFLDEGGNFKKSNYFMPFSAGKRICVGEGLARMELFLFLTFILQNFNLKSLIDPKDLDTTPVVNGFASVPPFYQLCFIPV
T1 sequence (P05177 whole entry): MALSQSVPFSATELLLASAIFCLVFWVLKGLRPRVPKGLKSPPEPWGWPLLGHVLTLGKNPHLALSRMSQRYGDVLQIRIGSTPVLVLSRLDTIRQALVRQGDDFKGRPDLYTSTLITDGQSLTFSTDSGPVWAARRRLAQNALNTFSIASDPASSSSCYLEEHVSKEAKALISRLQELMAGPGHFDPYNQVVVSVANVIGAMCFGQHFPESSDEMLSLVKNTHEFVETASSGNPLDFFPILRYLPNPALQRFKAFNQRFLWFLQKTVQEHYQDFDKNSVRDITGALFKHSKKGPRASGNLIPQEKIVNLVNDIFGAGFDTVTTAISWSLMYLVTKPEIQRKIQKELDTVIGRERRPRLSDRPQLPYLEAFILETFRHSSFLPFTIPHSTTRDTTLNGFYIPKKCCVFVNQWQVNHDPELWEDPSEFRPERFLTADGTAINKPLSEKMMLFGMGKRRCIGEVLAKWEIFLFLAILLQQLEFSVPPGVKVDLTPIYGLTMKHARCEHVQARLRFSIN
T4 sequence (P10635 whole entry): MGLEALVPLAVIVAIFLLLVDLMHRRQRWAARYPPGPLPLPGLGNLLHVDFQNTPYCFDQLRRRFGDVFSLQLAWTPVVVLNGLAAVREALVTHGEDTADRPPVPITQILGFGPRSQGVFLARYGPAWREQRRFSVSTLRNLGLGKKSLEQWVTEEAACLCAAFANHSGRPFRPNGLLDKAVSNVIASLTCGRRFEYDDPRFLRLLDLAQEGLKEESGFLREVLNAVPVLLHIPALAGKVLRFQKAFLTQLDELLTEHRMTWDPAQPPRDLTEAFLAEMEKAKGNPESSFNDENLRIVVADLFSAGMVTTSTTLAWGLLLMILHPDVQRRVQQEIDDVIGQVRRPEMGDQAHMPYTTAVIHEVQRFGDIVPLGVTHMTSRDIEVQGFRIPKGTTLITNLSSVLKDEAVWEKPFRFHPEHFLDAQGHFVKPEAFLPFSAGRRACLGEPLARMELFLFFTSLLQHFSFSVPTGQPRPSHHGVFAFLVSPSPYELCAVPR
T3 sequence (P08684 whole entry): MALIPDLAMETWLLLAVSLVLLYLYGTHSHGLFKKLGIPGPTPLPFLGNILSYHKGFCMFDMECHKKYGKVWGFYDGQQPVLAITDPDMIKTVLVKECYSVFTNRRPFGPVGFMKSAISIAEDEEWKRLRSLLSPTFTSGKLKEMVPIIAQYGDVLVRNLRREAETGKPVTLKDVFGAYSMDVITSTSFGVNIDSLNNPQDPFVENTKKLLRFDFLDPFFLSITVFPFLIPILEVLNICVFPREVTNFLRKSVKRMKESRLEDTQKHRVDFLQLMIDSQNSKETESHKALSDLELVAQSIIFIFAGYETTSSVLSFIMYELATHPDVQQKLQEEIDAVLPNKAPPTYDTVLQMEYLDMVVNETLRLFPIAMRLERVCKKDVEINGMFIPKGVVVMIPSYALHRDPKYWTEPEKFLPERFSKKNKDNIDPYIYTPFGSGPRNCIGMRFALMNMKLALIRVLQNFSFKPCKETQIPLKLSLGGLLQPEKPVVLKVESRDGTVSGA

Structure (SMILES): C[C@@H]1O[C@@H](O[C@@H]2[C@@H](O)[C@H](OCCc3ccc(O)c(O)c3)O[C@H](CO)[C@H]2OC(=O)/C=C/c2ccc(O)c(O)c2)[C@H](O)[C@H](O)[C@H]1O [Verbascoside]
- IC50 at 40 min ([1]; human, recombinant CYP1A2, pH 7.4): > 50 µM
- IC50 [1]: 83 µM
- Recombinant CYP IC50 (µM) with 95% confidence intervals [2]: Stimulation ^c
- Recombinant CYP IC50 (µM) with 95% confidence intervals ([2]; listed as verbascoside): did not inhibit; also recorded: weak ability to stimulate
- IC50 at 40 min ([3]; human, recombinant CYP3A4, pH 7.4, probe OCA369 (3-(3-benzyloxo)phenyl-7-methoxycoumarin), 10 µM): > 50 µM
- IC50 [3]: 314 µM
- IC50 at 40 min ([4]; human, recombinant CYP2D6, pH 7.4, probe TFD023 (3-(4-phenyl)-7-methoxycoumarin), 10 µM): > 50 µM
- IC50 [4]: 131 µM
- Recombinant CYP IC50 (µM) with 95% confidence intervals [5]: No inhibition
- Recombinant CYP IC50 (µM) with 95% confidence intervals ([5]; listed as verbascoside): did not inhibit
- IC50 at 40 min ([6]; human, recombinant CYP1B1, pH 7.4, probe TFD008 1 (3-(4-phenylacetate)-6-chlorocoumarin), 10 µM): > 50 µM
- IC50 [6]: 86 µM
- IC50 [7]: 384 µM

Source: PMC6600574 (Molecules, 2019)
